Values belong to the molecule of their own block, whether it stands above or below them.
Legend:
Assay type in all cases: cell-based
P2X7R [1] = biological target: T1, P2X7R (Homo sapiens, UniProt Q99572); assay: inhibition of ATP-induced
T1 sequence (Q99572 1-595): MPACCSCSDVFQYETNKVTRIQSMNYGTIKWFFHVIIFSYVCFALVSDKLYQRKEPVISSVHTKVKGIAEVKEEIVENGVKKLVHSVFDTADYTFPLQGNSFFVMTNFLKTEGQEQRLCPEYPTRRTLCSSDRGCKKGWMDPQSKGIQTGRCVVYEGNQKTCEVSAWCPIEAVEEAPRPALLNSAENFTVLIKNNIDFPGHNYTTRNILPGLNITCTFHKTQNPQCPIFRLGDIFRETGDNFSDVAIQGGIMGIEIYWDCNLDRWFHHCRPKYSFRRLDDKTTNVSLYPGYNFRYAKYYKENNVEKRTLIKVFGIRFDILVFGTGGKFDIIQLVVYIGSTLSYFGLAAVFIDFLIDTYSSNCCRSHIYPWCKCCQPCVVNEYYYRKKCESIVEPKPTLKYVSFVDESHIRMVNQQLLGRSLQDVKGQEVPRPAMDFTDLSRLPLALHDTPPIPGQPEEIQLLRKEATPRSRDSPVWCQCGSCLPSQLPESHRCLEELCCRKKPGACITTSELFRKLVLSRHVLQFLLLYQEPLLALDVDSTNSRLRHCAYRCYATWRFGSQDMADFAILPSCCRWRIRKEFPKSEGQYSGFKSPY

P2X7R [2] = biological target: T1, P2X7R; assay: whole-cell patch clamp:[…] blocks […] ATP-evoked current
P2X7R [3] = biological target: T1, P2X7R; assay: whole-cell patch clamp, concentration-dependent inward currents

IC50 (P2X7R [1]): 1.35 µM
SMILES: O=C1CSC(=O)N1C(CCc1ccncc1)COc1ccc(-c2cccc([N+](=O)[O-])c2)cc1 (stereo not drawn) [AZ11645373]

IC50 (P2X7R [2]): 2.25 µM
SMILES: Clc1cccc(-c2nnnn2Cc2cccnc2)c1Cl [A438079]

EC50 (P2X7R [3]): 877 µM
SMILES: Nc1ncnc2c1ncn2[C@@H]1O[C@H](COP(=O)(O)OP(=O)(O)OP(=O)(O)O)[C@@H](O)[C@H]1O [ATP]
